Reference: publication PMC10518257 (Nature Cancer, 2023)
“And” between values parts separate entries of the source, which are not always exact repeats. Identical values can stand only once. Like-named read-outs stand apart in the source and are kept apart here.

Assay: Pharmacokinetic analysis of vepafestinib in rats (microdialysis PFC, CSF, plasma)
Assay type: in vivo, male Han Wistar rats

COCc1ccc(NC(=O)c2c(C#CCN3CCOCC3)n(C3(C)CC3)c3ncnc(N)c23)cc1 [Vepafestinib, 4-amino-N-[4-(methoxymethyl)phenyl]-7-(1-methylcyclopropyl)-6-[3-(morpholin-4-yl)prop-1-yn-1-yl]-7H-pyrrolo[2,3-d]pyrimidine-5-carboxamide]
Concentration in Rats, Plasma (free fraction) (3 mg/kg, 30 min, individual rats): 411 nM and 290 nM and 384 nM and 193 nM
Concentration in Rats, Plasma (free fraction) (3 mg/kg, 60 min, individual rats): 248 nM and 212 nM and 391 nM and 168 nM
concentration at 480 min (3 mg/kg, 60 min, individual rats, read-out: Concentration in Rats, Cerebrospinal fluid): 109 nM
concentration at 120 min (3 mg/kg, 60 min, individual rats, read-out: Concentration in Rats, Plasma (total)): 1620 nM and 1390 nM and 2560 nM and 1100 nM
Concentration in Rats, Plasma (free fraction) (3 mg/kg, 120 min, individual rats): 129 nM and 143 nM and 163 nM and 115 nM
Concentration in Rats, Plasma (free fraction) (3 mg/kg, 180 min, individual rats): 68 nM and 120 nM and 97.8 nM and 63 nM
Concentration in Rats, Plasma (free fraction) (3 mg/kg, 300 min, individual rats): 17.3 nM and 28.1 nM and 50.7 nM and 32.7 nM
Concentration in Rats, Plasma (free fraction) (3 mg/kg, 360 min, individual rats): 8.57 nM and 13.7 nM and 36.5 nM
Concentration in Rats, Plasma (free fraction) (3 mg/kg, 480 min, individual rats): 24.3 nM
Concentration in Rats, Plasma (free fraction) (10 mg/kg, 30 min, individual rats): 1323 nM and 1543 nM and 1071 nM and 1204 nM
Concentration in Rats, Plasma (free fraction) (10 mg/kg, 60 min, individual rats): 1016 nM and 1083 nM and 660 nM and 921 nM
Concentration in Rats, Plasma (free fraction) (10 mg/kg, 120 min, individual rats): 503 nM and 680 nM and 665 nM and 714 nM
Concentration in Rats, Plasma (free fraction) (10 mg/kg, 180 min, individual rats): 272 nM and 513 nM and 529 nM and 374 nM
Concentration in Rats, Plasma (free fraction) (10 mg/kg, 240 min, individual rats): 133 nM and 237 nM and 243 nM and 244 nM
Concentration in Rats, Plasma (free fraction) (10 mg/kg, 300 min, individual rats): 53.6 nM and 90.5 nM and 129 nM and 102 nM
Concentration in Rats, Plasma (free fraction) (10 mg/kg, 360 min, individual rats): 30.4 nM and 53.8 nM and 63.3 nM and 53.6 nM
Concentration in Rats, Plasma (free fraction) (10 mg/kg, 480 min, individual rats): 15.6 nM and 25.5 nM and 17.7 nM
Concentration in Rats, Plasma (free fraction) (50 mg/kg, 30 min, individual rats): 2310 nM and 2399 nM and 2002 nM and 1803 nM
Concentration in Rats, Plasma (free fraction) (50 mg/kg, 60 min, individual rats): 1589 nM and 1818 nM and 1742 nM and 1803 nM
Concentration in Rats, Plasma (free fraction) (50 mg/kg, 120 min, individual rats): 1415 nM and 2506 nM and 1273 nM and 2017 nM
Concentration in Rats, Plasma (free fraction) (50 mg/kg, 180 min, individual rats): 947 nM and 2200 nM and 964 nM and 1305 nM
Concentration in Rats, Plasma (free fraction) (50 mg/kg, 240 min, individual rats): 591 nM and 2093 nM and 1166 nM and 1108 nM
Concentration in Rats, Plasma (free fraction) (50 mg/kg, 300 min, individual rats): 740 nM and 1435 nM and 817 nM and 694 nM
Concentration in Rats, Plasma (free fraction) (50 mg/kg, 360 min, individual rats): 891 nM and 1181 nM and 821 nM and 400 nM
Concentration in Rats, Plasma (free fraction) (50 mg/kg, 480 min, individual rats): 20.5 nM and 680 nM and 743 nM and 651 nM
concentration at 120 min (male, Han Wistar, rat, cerebrospinal fluid, oral, 3 mg/kg, 120 min, individual rats, read-out: Concentration in Rats, Cerebrospinal fluid): 67.4 nM
concentration at 240 min (male, Han Wistar, rat, cerebrospinal fluid, oral, 3 mg/kg, 240 min, individual rats, read-out: Concentration in Rats, Cerebrospinal fluid): 28.8 nM
concentration at 480 min (male, Han Wistar, rat, cerebrospinal fluid, oral, 3 mg/kg, 480 min, individual rats, read-out: Concentration in Rats, Cerebrospinal fluid): 8.78 nM
concentration at 30 min (male, Han Wistar, rat, cerebrospinal fluid, oral, 10 mg/kg, 30 min, individual rats, read-out: Concentration in Rats, Cerebrospinal fluid): 961 nM
concentration at 120 min (male, Han Wistar, rat, cerebrospinal fluid, oral, 10 mg/kg, 120 min, individual rats, read-out: Concentration in Rats, Cerebrospinal fluid): 585 nM
concentration at 480 min (male, Han Wistar, rat, cerebrospinal fluid, oral, 50 mg/kg, rats, 50 mg/kg, 480 min, individual animals, read-out: Concentration in Cerebrospinal fluid): 430 nM
concentration at 480 min (male, Han Wistar, rat, cerebrospinal fluid, oral, 50 mg/kg, 480 min, individual rats, read-out: Concentration in Rats, Cerebrospinal fluid): 486 nM
concentration at 120 min (male, Han Wistar, rat, plasma (total), oral, 3 mg/kg, 120 min, individual rats, read-out: Concentration in Rats, Plasma (total)): 845 nM
concentration at 180 min (male, Han Wistar, rat, plasma (total), oral, 3 mg/kg, 180 min, individual rats, read-out: Concentration in Rats, Plasma (total)): 445 nM
concentration at 480 min (male, Han Wistar, rat, plasma (total), oral, 3 mg/kg, 480 min, individual rats, read-out: Concentration in Rats, Plasma (total)): 159 nM
concentration at 30 min (male, Han Wistar, rat, plasma (total), oral, 10 mg/kg, 30 min, individual rats, read-out: Concentration in Rats, Plasma (total)): 8660 nM
concentration at 60 min (male, Han Wistar, rat, plasma (total), oral, 10 mg/kg, 60 min, individual rats, read-out: Concentration in Rats, Plasma (total)): 6650 nM
concentration at 120 min (male, Han Wistar, rat, plasma (total), oral, 10 mg/kg, 120 min, individual rats, read-out: Concentration in Rats, Plasma (total)): 3290 nM
concentration at 180 min (male, Han Wistar, rat, plasma (total), oral, 10 mg/kg, 180 min, individual rats, read-out: Concentration in Rats, Plasma (total)): 1780 nM
concentration at 240 min (male, Han Wistar, rat, plasma (total), oral, 10 mg/kg, 240 min, individual rats, read-out: Concentration in Rats, Plasma (total)): 872 nM
concentration at 480 min (male, Han Wistar, rat, plasma (total), oral, 10 mg/kg, 480 min, individual rats, read-out: Concentration in Rats, Plasma (total)): 102 nM
concentration at 120 min (male, Han Wistar, rat, plasma (total), oral, 50 mg/kg, rats, 50 mg/kg, 120 min, individual animals, read-out: Concentration in Plasma (total)): 9260 nM
concentration at 30 min (male, Han Wistar, rat, plasma (total), oral, 50 mg/kg, 30 min, individual rats, read-out: Concentration in Rats, Plasma (total)): 15100 nM
concentration at 60 min (male, Han Wistar, rat, plasma (total), oral, 50 mg/kg, 60 min, individual rats, read-out: Concentration in Rats, Plasma (total)): 10400 nM
